Measurements from patent US10556943B2, “HLA-DR binding peptides and their uses” (priority 2007, dated 2020).

What was measured:
purified HLA DRB1*0901 = biological target: T1, purified HLA DRB1*0901 (Homo sapiens, UniProt P01903+P01911, A100R/A103E/D57H/D86V/F55Y/F60I/F76Y/I96F/K127E/L162R/M171V/P40D/Q125H/Q99R/R33Q/R42F/S133A/S66N/T210M/V115G/W38K/Y107V/Y59G/Y89S); test: HLA-DR radioligand binding inhibition assay, DRB1*0901
T1 construct: MHC molecules utilized were purified from EBV transformed homozygous cell lines or single MHC allele transfected 721.221, C1R, or fibroblast lines; made in house; host or cells: EBV transformed homozygous cell lines or single MHC allele transfected 721.221, C1R, or fibroblast lines
Description: (§1) Fifteen distinct HLA-DR molecules were used in quantitative assays to measure the binding of peptides to solubilized HLA-DR molecules. […] Briefly, columns of inactivated Sepharose CL4B and Protein A Sepharose were used as pre-columns. HLA-DR molecules were captured by passage of lysates over LB3.1 monoclonal antibody (anti-HLA-DRA) columns. Antibody columns were washed with 10 mM Tris-HCL, pH8.0 with 1% (v/v) NP-40, followed by PBS containing 0.4% (w/v) n-octylglucoside.
(§2) Briefly, 1-10 nM of radiolabeled peptide was co-incubated for 2 days at either room temperature or 37° C. with 1 μM to 1 nM purified HLA-DR molecules in the presence of a cocktail of protease inhibitors. Assays were performed at various pH conditions, ranging from pH 4 to pH 7. […] After incubation, the percentage of HLA-DR-bound radioactivity is determined by capturing HLA-DR/peptide complexes on Optiplates (Packard Instruments, Meriden, Conn.) coated with the LB3.1 antibody and determining bound counts per minute using the TopCount microscintillation counter (Packard Instruments).

purified HLA DRB1*1201 = biological target: T2, purified HLA DRB1*1201 (Homo sapiens, UniProt P01903+P01911, A100R/A169T/D57E/D86V/F55L/H45Y/K41T/L162R/M171V/P40S/Q125H/Q178H/Q39Y/Q99D/R42G/S66L/T262R/V114A/V67L/W38E/Y59H/Y61H/Y89S); test: HLA-DR radioligand binding inhibition assay, DRB1*1201; details: column 5 of second part of Table I
T2 construct: MHC molecules utilized were purified from EBV transformed homozygous cell lines or single MHC allele transfected 721.221, C1R, or fibroblast lines; made in house; host or cells: EBV transformed homozygous cell lines or single MHC allele transfected 721.221, C1R, or fibroblast lines
Description: as §1, with “n-octylglucoside. […] The pH was reduced to 8.0 and the eluates were concentrated by centrifugation in Centriprep 30 concentrators at 2000 rpm (Amicon, Beverly, Mass.).” for “n-octylglucoside.”
as §2, with “Instruments). […] Competitor peptides are tested in 2-4 complete, independent experiments, at concentrations ranging from 30 μg/mL to 300 pg/mL.” for “Instruments).”

purified HLA DRB1*1302 = biological target: T3, purified HLA DRB1*1302 (Homo sapiens, UniProt P01903+P01911, A100E/A169T/K41T/L162R/M171V/P40S/Q125H/Q178H/Q39Y/Q99D/R42S/S66N/T262R/V115G/W38E/Y61H); test: HLA-DR radioligand binding inhibition assay, DRB1*1302; details: column 6 of second part of Table I
T3 construct: MHC molecules utilized were purified from EBV transformed homozygous cell lines or single MHC allele transfected 721.221, C1R, or fibroblast lines; made in house; host or cells: EBV transformed homozygous cell lines or single MHC allele transfected 721.221, C1R, or fibroblast lines
T3 sequence (P01903 26-254, other chains not shown): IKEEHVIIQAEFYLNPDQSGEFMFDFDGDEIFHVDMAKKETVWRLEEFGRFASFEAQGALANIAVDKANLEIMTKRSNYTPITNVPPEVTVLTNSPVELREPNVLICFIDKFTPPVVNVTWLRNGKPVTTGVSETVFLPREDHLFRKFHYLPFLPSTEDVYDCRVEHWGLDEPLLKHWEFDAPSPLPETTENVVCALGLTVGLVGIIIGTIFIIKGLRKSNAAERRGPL
Description: as §1, §2

IC50 (purified HLA DRB1*0901): > 20 µM
IC50 (purified HLA DRB1*1201): > 20 µM
IC50 (purified HLA DRB1*1302): > 20 µM
Structure (SMILES): CSCC[C@H](NC(=O)[C@H](CCCNC(=N)N)NC(=O)[C@H](CO)NC(=O)[C@H](Cc1ccccc1)NC(=O)[C@H](CCC(=O)O)NC(=O)[C@H](CO)NC(=O)[C@@H](NC(=O)[C@H](CC(C)C)NC(=O)[C@H](CCC(=O)O)NC(=O)[C@H](CCCNC(=N)N)NC(=O)[C@@H](N)Cc1ccccc1)C(C)C)C(=O)N[C@@H](C)C(=O)N[C@@H](CCCNC(=N)N)C(=O)N[C@@H](CC(=O)O)C(=O)N1CCC[C@H]1C(=O)O [Peptide 9019.0096]
